Measured values published in publication PMC11964921 (npj Drug Discovery, 2025).

Assays:
[1] = test system: M. tuberculosis multi-drug-resistant clinical strains; experiment: microbe, parasite or virus in culture; format: cell-based; conditions: for MIC: Mycobacterium tuberculosis
[2] = test system: M. tuberculosis H37Rv-ΔcydAB; set-up: species or system mouse (Balb/cBy); conditions: mouse, in vivo

CCc1nc2ccc(Cl)cn2c1C(=O)NCc1ccc(C2CC3(C2)CN(S(=O)(=O)C(F)(F)F)C3)cc1 [JNJ-2901]
≤ 0.5 ng/mL: MIC ([1]; all 18 clinical strains, Middlebrook 7H9 medium) | MIC ([1]; strain 661706043123, resistant to INH, PAS) | MIC ([1]; strain 661710016056, resistant to INH, S, PAS) | MIC ([1]; strain 661904036200, resistant to INH, PAS) | MIC ([1]; strain 661906047849, resistant to INH, RIF, S, PZA, ETH, PAS, EMB, CYC) | MIC ([1]; strain 661907010966, resistant to INH, RIF, S, PAS, EMB, PZA, CYC, AMK, KAN, CAP, ETH) | MIC ([1]; strain 661908012994, resistant to INH, RIF, S, PZA, PAS, ETH) | MIC ([1]; strain 661911031781, resistant to INH, RIF, S, PAS, CYC, ETH, KAN) | MIC ([1]; strain 661911038007, resistant to INH, RIF, S, PAS) | MIC ([1]; strain 662001006107, resistant to INH, RIF, PZA, S, PAS, CYC, ETH, FQL) | MIC ([1]; strain 662001039167, resistant to INH, RIF, S, PAS, EMB, PZA, CYC, KAN) | MIC ([1]; strain 662001071666, resistant to INH, RIF, S, PAS, PZA, EMB, ETH) | MIC ([1]; strain 662003052840, resistant to INH, EMB, PZA, S, CYC, PAS, ETH) | MIC ([1]; strain 662004032055, resistant to INH, RIF, S, PAS, ETH) | MIC ([1]; strain 662008015398, resistant to INH, RIF, S, PAS, EMB, PZA, ETH) | MIC ([1]; strain 662012006551, resistant to INH, PAS, PZA, ETH (LNZ geno)) | MIC ([1]; strain 662101040833, resistant to INH, RIF, PZA, S, PAS, EMB, ETH, KAN, CAP, AMK, CYC) | MIC ([1]; strain 662105041666, resistant to INH, RIF, S, PZA, EMB, FQL, ETH, CYC, PAS) | MIC ([1]; strain 662108038389, resistant to INH, RIF, S, PAS)
4 log: reduction in bacterial burden / lung CFU [2]
sub-nanomolar: concentration of growth inhibition (in words) ([1]; clinical multidrug-resistant M. tuberculosis strains)
< 1 nM: MIC ([1]; all 18 clinical strains)
